Results from ChEMBL document CHEMBL1152950, “Cytotoxic activity and inhibitory effect on nitric oxide production of triterpene saponins from the roots of Physospermum verticillatum (Waldst & Kit) (Apiaceae)” (Bioorg Med Chem, 2009).

Columns and labels:
[1] = test system: HL-60; experiment: Cytotoxicity against human HL60 cells; format: functional, cell-based
[2] = test system: HT-29; experiment: Cytotoxicity against human HT-29 cells; format: functional, cell-based
[3] = test system: MCF7; experiment: Cytotoxicity against human MCF7 cells; format: functional, cell-based
[4] = test system: SK-OV-3; experiment: Cytotoxicity against human SKOV3 cells; format: functional, cell-based
[5] = test system: ACHN; experiment: Cytotoxicity against human ACHN cells after 48 hrs by SRB assay; format: functional, cell-based
[6] = test system: A-375; experiment: Cytotoxicity against human A375 cells after 48 hrs by SRB assay; format: functional, cell-based; details: for IC50: A-375, 48 h
[7] = test system: C32; experiment: Cytotoxicity against human C32 cells after 48 hrs by SRB assay; format: functional, cell-based; details: for IC50: C32, 48 h
[8] = test system: MCF7; experiment: Cytotoxicity against human MCF7 cells after 48 hrs by SRB assay; format: functional, cell-based; details: MCF7, 48 h
[9] = test system: LNCaP; experiment: Cytotoxicity against human LNCAP cells after 48 hrs by SRB assay; format: functional, cell-based
[10] = test system: A549; experiment: Cytotoxicity against human A549 cells after 48 hrs by SRB assay; format: functional, cell-based; details: A549, 48 h
[11] = Cytotoxicity against human Huh-7D12 cells after 48 hrs by SRB assay; format: functional, cell-based; details: Huh-7D12, 48 h
[12] = test system: COR-L23; experiment: Cytotoxicity against human COR-L23 cells after 48 hrs by SRB assay; format: functional, cell-based; details: for IC50: COR-L23, 48 h
[13] = test system: Caco-2; experiment: Cytotoxicity against human Caco-2 cells after 48 hrs by SRB assay; format: functional, cell-based; details: for IC50: Caco-2, 48 h
[14] = Cytotoxicity against human 142BR cells after 48 hrs by SRB assay; format: cell-based; details: for IC50: Homo sapiens; for Activity: human
[15] = test system: RAW264.7; experiment: Antiinflammatory activity in LPS-stimulated mouse RAW264.7 cells assessed as inhibition of NO production after 24 hrs by Griess reagent method; format: functional, cell-based; details: for IC50: RAW264.7, 24 h
[16] = test system: RAW264.7; experiment: Cytotoxicity against mouse RAW264.7 cells by MTT assay; format: cell-based
[17] = test system: Radical scavenging activity; experiment: Antioxidant activity assessed as DPPH radical scavenging activity by spectrophotometry; format: functional

Structure (SMILES) | Activity [5] | IC50 [5] [µM] | Activity [6] | IC50 [6] [µM] | Activity [7] | IC50 [7] [µM] | IC50 [8] [µM] | IC50 [9] [µM] | IC50 [10] [µM] | IC50 [11] [µM] | Activity [12] | IC50 [12] [µM] | Activity [13] | IC50 [13] [µM] | IC50 [14] [µM] | Activity [14] | Activity [15] | IC50 [15] [µM] | IC50 [16] [µM] | IC50 [17] | further results
CC1(C)C[C@@H]2C3=CC[C@@H]4[C@@]5(C)CC[C@H](O[C@H]6OC[C@H](O)[C@H](O[C@@H]7O[C@H](CO)[C@@H](O)[C@H](O)[C@H]7O)[C@H]6O)C(C)(C)[C@@H]5CC[C@@]4(C)[C@]3(C)C[C@H](O)[C@@]2(CO)[C@H](OC(=O)c2ccccc2)C1 [GLOCHIERIOSIDE A] |  |  |  |  |  |  |  |  |  |  |  |  |  |  |  |  |  |  |  |  | IC50 [1]: 5.5 µM; IC50 [2]: 6.8 µM; IC50 [3]: 29.1 µM; IC50 [4]: 22.7 µM
C[C@H]1O[C@@H](O[C@H]2CC[C@@]3(C)[C@@H](CC[C@]4(C)[C@@H]3C=C[C@]35OC[C@@]6(CCC(C)(C)C[C@H]63)[C@@H](O)C[C@]54C)[C@]2(C)CO)[C@H](O[C@@H]2O[C@H](CO)[C@@H](O)[C@H](O)[C@H]2O)[C@@H](O[C@@H]2O[C@H](CO)[C@@H](O)[C@H](O)[C@H]2O)[C@H]1O [BUDDLEJASAPONIN IV] | Dose-dependent effect | 7.9 | Dose-dependent effect | 14.6 | Dose-dependent effect | 26.9 | > 50 | > 50 | 38.3 | > 50 | Dose-dependent effect | 0.4 | Dose-dependent effect | 40.7 | > 50 | Dose-dependent effect | Dose-dependent effect | 4.2 | 10.6 | Not Active | 
CC1(C)C[C@@H]2C3=CC[C@@H]4[C@@]5(C)CC[C@H](O[C@@H]6OC[C@@H](O)[C@H](O[C@@H]7O[C@H](CO)[C@@H](O)[C@H](O)[C@H]7O)[C@H]6O)C(C)(C)[C@@H]5CC[C@@]4(C)[C@]3(C)C[C@H](O)[C@@]2(CO)[C@H](OC(=O)c2ccccc2)C1 [GLOCHIERIOSIDE B] |  |  |  |  |  |  |  |  |  |  |  |  |  |  |  |  |  |  |  |  | IC50 [1]: 6.6 µM; IC50 [2]: 18.6 µM; IC50 [3]: 36.1 µM; IC50 [4]: 16 µM
O=C1O[C@H]([C@@H](O)CO)C(O)=C1O [ASCORBIC ACID] |  |  |  |  |  |  |  |  |  |  |  |  |  |  |  |  |  |  |  |  | IC50 ([17]; read-out: IC50): 0.002 µM
CC[C@]1(O)C[C@@H]2CN(CCc3c([nH]c4ccccc34)[C@@](C(=O)OC)(c3cc4c(cc3OC)N(C)[C@H]3[C@@](O)(C(=O)OC)[C@H](OC(C)=O)[C@]5(CC)C=CCN6CC[C@]43[C@@H]65)C2)C1.O=S(=O)(O)O [VINBLASTINE SULFATE] | Dose-dependent effect | 22.7 | Dose-dependent effect | 7.2 | Dose-dependent effect | 3 |  | 29.3 |  | 45.6 | Dose-dependent effect | 45.5 | Dose-dependent effect | 69 | 37.6 | Dose-dependent effect |  |  |  |  | 
CC(=O)O[C@H]1C(=O)[C@@]2(C)[C@H]([C@H](OC(=O)c3ccccc3)[C@]3(O)C[C@H](OC(=O)[C@H](O)[C@@H](NC(=O)c4ccccc4)c4ccccc4)C(C)=C1C3(C)C)[C@]1(OC(C)=O)CO[C@@H]1C[C@@H]2O [PACLITAXEL] | Dose-dependent effect |  | Dose-dependent effect |  | Dose-dependent effect |  | 0.08 |  |  |  | Dose-dependent effect |  | Dose-dependent effect |  |  | Dose-dependent effect |  |  |  |  | 
C[C@H]1O[C@@H](O[C@H]2CC[C@@]3(C)[C@@H](CC[C@]4(C)[C@@H]3C=C[C@]35OC[C@@]6(CCC(C)(C)C[C@H]63)[C@@H](O)C[C@]54C)[C@]2(C)CO)[C@H](O)[C@@H](O[C@@H]2O[C@H](CO)[C@@H](O)[C@H](O[C@@H]3O[C@H](CO)[C@@H](O)[C@H](O)[C@H]3O[C@@H]3O[C@H](CO)[C@@H](O)[C@H](O)[C@H]3O)[C@H]2O)[C@H]1O [SONGAROSAPONIN D] | Dose-dependent effect | 37.2 | Dose-dependent effect | 12.4 | Dose-dependent effect | 14 | > 50 | > 50 | 41.1 | > 50 | Dose-dependent effect | 0.4 | Dose-dependent effect | 16.7 | > 50 | Dose-dependent effect | Dose-dependent effect | 10.4 | 56.1 | Not Active | 
COc1ccc2c(c1)c(CC(=O)O)c(C)n2C(=O)c1ccc(Cl)cc1 |  |  |  |  |  |  |  |  |  |  |  |  |  |  |  |  | Dose-dependent effect |  |  |  | 
C[C@H]1O[C@@H](O[C@H]2CC[C@@]3(C)[C@@H](CC[C@]4(C)[C@@H]3C=C[C@]35OC[C@@]6(CCC(C)(C)C[C@H]63)[C@@H](O)C[C@]54C)[C@]2(C)CO)[C@H](O)[C@@H](O[C@@H]2O[C@H](CO)[C@@H](O)[C@H](O)[C@H]2O)[C@H]1O [SAIKOSAPONIN A] | Dose-dependent effect | > 50 | Dose-dependent effect | 23.9 | Dose-dependent effect | 43.5 | > 50 | > 50 | 17.7 | > 50 | Dose-dependent effect | 0.6 | Dose-dependent effect | 17.9 | > 50 | Dose-dependent effect | Dose-dependent effect | 102 | > 200 | Not Active | 
